Assay results: article PMC6273072, “Identification of a New Morpholine Scaffold as a P2Y12 Receptor Antagonist” (Molecules, 2016)
Where “and” joins values, the source holds several entries; their conditions need not be identical. Equal entries are not always repeated.

Experiments:
human P2Y1 receptor = target: T1, human P2Y1 receptor (Homo sapiens, UniProt P47900); assay: P2Y1-mediated Ca2+ mobilization in NIH3T3-P2Y1 + Gq cells (FLIPR); assay type: cell-based; conditions: for inhibitory effect at P2Y1 receptor, in words: up to 100 μM
T1 construct: expressed in transfected cells
Protocol: Intracellular Ca^2+ mobilization was analyzed using the FLIPR 5 assay kit as previously described. Briefly, pDisplay-human P2Y1 DNA clone and pcDNA-Gq DNA clone were stably expressed in NIH3T3 cells. NIH3T3-P2Y1 + Gq cells (3 × 10^5 cells/mL) were seeded in a 96-well plate and allowed to adhere overnight. An equal volume of FLIPR 5 assay kit loading buffer (Molecular Devices) was added directly to the culture medium for 1 h at room temperature, followed by 20-min incubation after adding the test compounds. Changes in intracellular Ca^2+ were measured with a FlexStation II scanning fluorometer (Molecular Devices).

[1] = test system: ADP-induced platelet aggregation; assay: Inhibition of ADP-induced platelet aggregation, 96-well light transmission aggregometry; assay type: cell-based, human; conditions: for IC50: 20 μM ADP; for effect of pre-incubation / time on inhibition of ADP-induced platelet aggregation, in words: data not shown
Protocol: Platelets were isolated from 400 mL whole blood containing 56 mL of CPDA-1 anticoagulant purchased from Chung-Nam Blood Center (Daejeon, South Korea) by centrifugation at 260× g for 5 min. The resultant platelet-rich plasma was centrifuged at 370× g for 6 min, and the platelet pellet (10^9/mL) was resuspended in 45 mL plasma and stabilized by agitation for 1 h at 22 °C in blood reservoir. The product was used for experiments within 24 h. Platelet concentrate (PC) was transferred to a new 50-mL Falcon tube and the number of platelets was counted using the ABC Vet blood counter (ABX Diagnostics, Montpellier, France). A 30-mL volume of PCs from the same donor was centrifuged at 1500× g for 10 min at room temperature to obtain platelet-poor plasma (PPP). The platelet count was adjusted to 3–4 × 10^8/mL by diluting with PPP.
Inhibition of ADP-induced aggregation was assessed in a Costar 96-well flat-bottom plate (Sigma-Aldrich, St. Louis, MO, USA) at room temperature. A 188-µL volume of the diluted platelet was added to each well of the plate along with 2 µL of test compound dissolved in dimethyl sulfoxide (DMSO). The reagents were mixed by placing the plate on a shaker at 1050 rpm for 1 min. A 10-µL volume of 400 μM ADP (final concentration: 20 μM) was added to the wells, and after additional shaking at room temperature for 3 min, the absorption of the samples was read at 595 nm on a Softmax microplate reader (Molecular Devices, Sunnyvale, CA, USA). A dose-response curve was generated using serial dilutions of ADP by adding the vehicle DMSO instead of antagonists in order to calculate the half-maximal effective concentration (EC50) of ADP. Inhibition of aggregation was determined as the increase in absorption at 595 nm after 3 min of incubation relative to absorption values of control preparations (0 and 20 μM ADP without antagonists). Sigmoidal dose-response curves and half-maximal inhibitory concentration (IC50) were derived by non-linear regression analysis using Prism 5.01 software (GraphPad, San Diego, CA, USA).

rhP2Y12 receptor [2] = target: T2, rhP2Y12 receptor (Homo sapiens, UniProt Q9H244); assay: rhP2Y12 receptor binding assay with [3H]-2-MeSADP (HEK293T membranes); conditions: for IC50: 1 nM [3H]-2-MeSADP, HEK293T-rhP2Y12 membranes
T2 construct: expressed in transfected cells
Protocol: (§1) The pDisplay-human P2Y12 DNA clone and pDisplay-human P2Y13 DNA clone were stably expressed in HEK293T and COS-7 cells, respectively; recombinant human (rh)P2Y12- and rhP2Y13-expressing cells were resuspended in hypotonic buffer consisting of 10 mM HEPES, 10 mM NaCl, 1 mM EDTA, 1 mM EGTA (pH 7.4), and protease inhibitor cocktail. Following 15-min incubation on ice, cells were homogenized on ice using a glass/teflon homogenizer (1000 rpm, 10 strokes). The homogenate was centrifuged at 500 × g for 15 min and the supernatant was centrifuged at 100,000× g for 30 min. The membrane pellet was adjusted to 1 mg/mL with membrane buffer consisting of 10 mM HEPES, 5 mM KCl, and 130 mM NaCl (pH 7.4) and stored at −80 °C. A 100-μL volume of 0.2 mg/mL membrane protein was added to each well of a 96-well plate along with 25 μL of test compound and [3H]2-MeSADP or [3H]ADP for a total reaction volume of 0.15 mL/well. The plate was incubated for 1 h at room temperature. The reaction was terminated by passing the solution through a GF/B filter presoaked with 0.1% polyethyleneimine using a 96-well cell harvester. […] Radioactivity of the P2Y12 receptor or P2Y13 receptor bound to the membrane were measured using a scintillation TopCount instrument (PerkinElmer, Boston, MA, USA). […] Percent inhibition of binding was calculated as follows: (100—(specific binding in the presence of test material/specific binding in the absence of test material × 100)).

rhP2Y12 receptor [3] = target: T2, rhP2Y12 receptor; assay: rhP2Y12 receptor binding assay with [3H]ADP (HEK293T membranes); conditions: for IC50: 3 nM [3H]ADP, HEK293T-rhP2Y12 membranes
Protocol: as §1

rhP2Y13 receptor = target: T3, rhP2Y13 receptor (Homo sapiens, UniProt Q9BPV8); assay: rhP2Y13 receptor [3H]2-MeSADP binding assay (COS-7 membranes)
T3 construct: expressed in transfected cells
T3 sequence (Q9BPV8 1-354): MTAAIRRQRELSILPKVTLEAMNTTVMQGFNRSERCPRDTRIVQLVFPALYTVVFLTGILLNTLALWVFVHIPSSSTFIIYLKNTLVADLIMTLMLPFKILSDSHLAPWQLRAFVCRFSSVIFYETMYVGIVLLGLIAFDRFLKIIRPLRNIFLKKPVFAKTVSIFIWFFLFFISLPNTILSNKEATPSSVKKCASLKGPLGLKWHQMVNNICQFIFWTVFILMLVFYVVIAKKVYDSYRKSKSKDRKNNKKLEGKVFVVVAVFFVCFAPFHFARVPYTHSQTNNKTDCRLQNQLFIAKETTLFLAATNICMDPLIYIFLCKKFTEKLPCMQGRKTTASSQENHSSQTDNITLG
Protocol: as §1

[4] = parameters: method as in PMID 25065553; conditions: side effect of ticagrelor; cited from earlier work
[5] = read-out: IC50 vs. [3H]-2-MeSADP
[6] = Homo sapiens, Platelet, 96-well plate

T2 sequence (Q9H244 whole entry): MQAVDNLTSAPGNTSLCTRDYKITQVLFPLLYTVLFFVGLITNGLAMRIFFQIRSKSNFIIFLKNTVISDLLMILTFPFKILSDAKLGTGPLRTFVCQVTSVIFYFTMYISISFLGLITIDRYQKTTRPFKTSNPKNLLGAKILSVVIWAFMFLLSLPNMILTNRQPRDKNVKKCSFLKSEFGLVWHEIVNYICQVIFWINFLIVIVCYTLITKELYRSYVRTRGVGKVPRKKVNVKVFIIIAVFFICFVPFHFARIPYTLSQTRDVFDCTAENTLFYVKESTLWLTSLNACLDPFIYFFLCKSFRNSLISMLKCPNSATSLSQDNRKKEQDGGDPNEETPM
T1 sequence (P47900 whole entry): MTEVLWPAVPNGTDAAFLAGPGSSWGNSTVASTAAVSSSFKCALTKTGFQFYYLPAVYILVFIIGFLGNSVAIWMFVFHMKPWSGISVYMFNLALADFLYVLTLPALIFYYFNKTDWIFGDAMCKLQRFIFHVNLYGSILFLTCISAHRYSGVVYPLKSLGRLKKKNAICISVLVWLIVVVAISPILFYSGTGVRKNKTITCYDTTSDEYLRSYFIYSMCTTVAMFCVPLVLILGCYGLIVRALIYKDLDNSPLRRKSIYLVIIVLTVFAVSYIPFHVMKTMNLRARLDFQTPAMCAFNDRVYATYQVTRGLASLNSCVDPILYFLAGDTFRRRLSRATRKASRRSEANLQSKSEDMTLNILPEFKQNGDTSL

Row | IC50 (rhP2Y12 receptor [2]; [5]) [µM] | IC50 (rhP2Y12 receptor [3]; read-out: IC50 vs. [3H]ADP) | IC50 [1, 6] [µM] | Molecule | other results
1 |  |  |  | 2-methylthioadenosine 5′-monophosphate [Compound 2-MeSAMP, reference compound] | inhibitory effect at P2Y1 receptor, in words (human P2Y1 receptor; 100 nM MRS2365): did not exert an inhibitory effect; IC50 ([1]; 96-well plate): 1.09 ± 0.16 µM
2 | 24.8 ± 2.09 | 0.19 ± 0.1 µM |  | Nc1ncnc2c1ncn2[C@@H]1O[C@H](COP(=O)(O)OP(=O)(O)O)[C@@H](O)[C@H]1O [ADP, Adenosine 5′-diphosphate, reference compound] | fold higher potency of ADP than 2-MeSADP in competing with [3H]ADP (rhP2Y12 receptor [3]): 90 fold; EC50 ([1]; Homo sapiens, Platelet, 96-well plate, read-out: EC50 of ADP, concentration-dependent platelet stimulation): 4.2 µM
3 | > 30 | > 30 µM | 8.04 ± 0.51 | COc1cccc(-n2nc(C#N)c(Cl)cc2=O)c1 [Compound A, 4-chloro-1-(3-methoxyphenyl)-6-oxopyridazine-3-carbonitrile] | 
4 | > 30 | > 30 µM | 9.49 ± 1.15 | Cn1sc(=O)c2cc(S(=O)(=O)NC3CC3)ccc21 [Compound B, N-cyclopropyl-1-methyl-3-oxo-2,1-benzothiazole-5-sulfonamide] | 
5 | > 30 | > 30 µM | 4.03 ± 0.95 | Cn1ncc(S(=O)(=O)Cc2ccccc2)c(Br)c1=O [Compound C, 5-benzylsulfonyl-4-bromo-2-methylpyridazin-3-one] | 
6 | > 30 | > 30 µM | 6.08 ± 0.11 | COc1ccc(C(=O)C=CSc2nncn2C)cc1 [Compound D, 1-(4-methoxyphenyl)-3-[(4-methyl-1,2,4-triazol-3-yl)sulfanyl]prop-2-en-1-one] | 
7 | 15.5 | 8.3 µM and 8.33 µM | 6.21 ± 0.71 | CN(C)c1ccc(C(c2cc3c(cc2O)OCO3)N2CCOCC2)cc1 (stereo not shown) [Compound E, 6-[(4-dimethylamino-phenyl)-morpholin-4-yl-methyl]-benzo[1,3]dioxol-5-ol] | fold higher potency vs [3H]ADP than vs [3H]2-MeSADP (rhP2Y12 receptor [3]): 1.9 fold; inhibitory effect at P2Y1 receptor, in words (human P2Y1 receptor; 100 nM MRS2365): did not exert an inhibitory effect; inhibition of [3H]2-MeS-ADP binding to rhP2Y13, in words (rhP2Y13 receptor; up to 100 μM): did not inhibit; effect of pre-incubation / time on inhibition of ADP-induced platelet aggregation, in words [1]: did not increase the potency
8 | > 30 | > 30 µM | 9.35 ± 2.19 | N#Cc1nccnc1S(=O)(=O)c1cccs1 [Compound F, 3-thiophen-2-ylsulfonylpyrazine-2-carbonitrile] | inhibition of [3H]-2-MeSADP binding to rhP2Y12, in words (rhP2Y12 receptor [2]): slightly inhibited; inhibition of [3H]ADP binding to rhP2Y12, in words (rhP2Y12 receptor [3]): slightly inhibited
9 |  |  |  | CNc1ncnc2c1ncn2[C@H]1C[C@H](OP(=O)(O)O)[C@@H](COP(=O)(O)O)O1 [MRS2179, reference compound] | IC50 (human P2Y1 receptor; 100 nM MRS2365, read-out: IC50, block of MRS2365 action at P2Y1 receptor): 0.66 µM; IC50 ([1]; 96-well plate): 1.1 ± 0.01 µM
10 |  |  |  | Cc1nc(N=Nc2cc([N+](=O)[O-])ccc2Cl)c(COP(=O)(O)O)c(C=O)c1O [MRS2211] | IC50 (rhP2Y13 receptor; 1 nM [3H]2-MeSADP, read-out: IC50, inhibition of [3H]2-MeS-ADP binding to rhP2Y13): 9.4 µM
11 |  |  |  | CSc1nc(N)c2ncn([C@H]3[C@H](O)[C@H](O)[C@]4(COP(=O)(O)OP(=O)(O)O)C[C@H]34)c2n1 [MRS2365] | EC50 (human P2Y1 receptor; Ca2+ mobilization, NIH3T3-P2Y1 + Gq cells, read-out: EC50 for P2Y1 receptor activation): 0.03 µM
12 |  |  |  | Nc1ncnc2c1ncn2[C@@H]1O[C@H](COP(=O)(O)OP(=O)(O)O)[C@@H](O)[C@H]1O [[^3H]ADP, reference compound] | Kd (rhP2Y12 receptor [3]; [3H]ADP saturation binding, read-out: Kd of radioligand at rhP2Y12 (saturation, Scatchard)): 0.0097 µM

Row | Molecule | IC50 (rhP2Y12 receptor [2]; [5]) [µM] | IC50 (rhP2Y12 receptor [3]; read-out: IC50 vs. [3H]ADP) | IC50 [1, 6] [µM] | other results
13 | Nc1ncnc2c1ncn2[C@@H]1O[C@H](COP(=O)(O)OP(=O)(O)OP(=O)(O)O)[C@@H](O)[C@H]1O [ATP, Adenosine 5′-triphosphate, reference compound] |  |  | 2.14 ± 0.51 | 
14 | CSc1nc(N)c2ncn([C@@H]3O[C@H](COP(=O)(O)OP(=O)(O)O)[C@@H](O)[C@H]3O)c2n1 [Compound 2-MeSADP, reference compound] | 0.12 ± 0.02 | 17.2 ± 4.62 µM |  | 
15 | CCCSc1nc(N[C@@H]2C[C@H]2c2ccc(F)c(F)c2)c2nnn([C@@H]3C[C@H](OCCO)[C@@H](O)[C@H]3O)c2n1 [Ticagrelor, reference compound] |  |  | 0.32 ± 0.02 | IC50 (rhP2Y12 receptor [2]; IC50 vs. [3H]-2-MeSADP): 0.04 ± 0.02 µM; shortness of breath (dyspnea) incidence [4]: 14%; fold lower potency vs [3H]ADP than vs [3H]2-MeSADP (rhP2Y12 receptor [3]): 210 fold; IC50 (rhP2Y12 receptor [3]; IC50 vs. [3H]ADP): 8.4 ± 3.05 µM; inhibitory effect at P2Y1 receptor, in words (human P2Y1 receptor; 100 nM MRS2365): did not exert an inhibitory effect; selectivity, rhP2Y13 in comparison to rhP2Y12 (rhP2Y13 receptor; [3H]2-MeS-ADP binding): > 1000 fold; effect of pre-incubation / time on inhibition of ADP-induced platelet aggregation, in words [1]: time-dependent manner
